Results reported in PMC6778019 (Contraception, 2019).
Like-named read-outs stand apart in the source and are kept apart here.

Legend:
[1] = cited from earlier work
[2] = cited from earlier work; for EE AUC / LNG AUC: COC EE 30 mcg / norgestrel 300 mcg
[3] = Steady-state pharmacokinetics of LNG and EE from day 21 of a COC cycle; format: in vivo, HIV-positive women; conditions: for AUClast Change (%) / AUCτ Change (%) / CL Change (%) / Cmax Change (%) / Cmin Change (%) / T1/2 Change (%) / Tmax Change (%) / Vss Change (%): Ritonavir arm vs control arm; for concentration at 24 h: oral, concentration 24 h after the last dose; for concentration at 24 h / Cmax / AUC: mean±SD; for Cmax: last dose of the cycle; for AUC: LNG AUCτ, AUC 24 h of the last dose of the 21-day cycle
[4] = COC users taking protease inhibitors
[5] = female, human, serum, po, T1/2, Ritonavir arm, half-life by NCA, median

C#C[C@]1(O)CC[C@H]2[C@@H]3CCC4=CC(=O)CC[C@@H]4[C@H]3CC[C@@]21C [norethindrone]
decrease in norethindrone AUC [1, 4]: 18% | increase in AUC of norethindrone [1, 4]: 110% | increase in norethindrone AUC ([1]; norethindrone progestin-only pill, women using ritonavir): 50%

C#C[C@]1(O)CC[C@H]2[C@@H]3CCc4cc(O)ccc4[C@H]3CC[C@@]21C [EE, ethinyl estradiol]
EE AUC ([2]; women not taking nevirapine): 1457 ng·mL/h | EE AUC ([2]; women taking nevirapine): 1384 ng·mL/h | AUClast Change (%) [3]: 18.2% | AUCτ Change (%) [3]: 21.8% | CL Change (%) [3]: −15.1% | Cmax Change (%) [3]: 33.7% | Cmin Change (%) [3]: 8.5% | T1/2 Change (%) [3]: 10.5% | Tmax Change (%) [3]: 0.0% | Vss Change (%) [3]: −24.1% | Tmax ([3]; Ritonavir arm, median (95% Confidence interval)): 1.0 (1.0,2.9) h | Vss ([3]; Ritonavir arm, volume at steady state by NCA, median (95% Confidence interval)): 475 (370,671) L | EE pharmacokinetic profiles, ritonavir vs control ([3]; comparison between groups): not different between groups | concentration at 24 h ([3]; female, human, serum, EE Cmin, Control arm (n=10)): 0.0492 ± 0.0141 ng/mL | concentration at 24 h ([3]; female, human, serum, EE Cmin, Ritonavir arm): 0.0533 ± 0.0147 ng/mL | Tmax ([3]; female, human, serum, po): 1 h | Cmax ([3]; female, human, serum, po, EE Cmax, Control arm (n=10)): 0.163 ± 0.0438 ng/mL | half-life ([3]; female, human, serum, po, T1/2, Control arm (n=10), half-life by NCA, median): 28.4 h | half-life [3, 5]: 31.3 h

C#CC1(O)CC[C@H]2[C@@H]3CCC4=CC(=O)CC[C@@H]4[C@H]3CC[C@@]21CC (stereo partly drawn) [norgestrel]
increase in norgestrel AUC ([2]; women taking ARV vs not taking ARV medication): approximately 30%

C#C[C@]1(O)CC[C@H]2[C@@H]3CCC4=CC(=O)CC[C@@H]4[C@H]3CC[C@@]21CC [LNG, levonorgestrel]
LNG AUC ([2]; women not taking nevirapine): 114 ng·mL/h | LNG AUC ([2]; women taking nevirapine): 147 ng·mL/h | AUClast Change (%) [3]: 32.0% | AUCτ Change (%) [3]: 32.6% | CL Change (%) [3]: −16.7% | Cmax Change (%) [3]: 27.0% | Cmin Change (%) [3]: 34.4% | T1/2 Change (%) [3]: 8.2% | Tmax Change (%) [3]: 33.3% | Vss Change (%) [3]: −13.2% | half-life ([3]; female, human, in vivo, po): 42.6 h | concentration at 24 h ([3]; female, human, serum, LNG Cmin, Control arm (n=10)): 3.7 ± 1.29 ng/mL | concentration at 24 h ([3]; female, human, serum, LNG Cmin, Ritonavir arm (n=5)): 4.97 ± 1.15 ng/mL | AUC ([3]; female, human, serum, po, Control arm (n=10)): 113 ± 37 ng·h/mL | AUC ([3]; female, human, serum, po, Ritonavir arm (n=5)): 150 ± 28 ng·h/mL | Cmax ([3]; female, human, serum, po, LNG Cmax, Control arm (n=10)): 7.62 ± 2.29 ng/mL | Cmax ([3]; female, human, serum, po, LNG Cmax, Ritonavir arm (n=5)): 9.68 ± 1.81 ng/mL | half-life [3, 5]: 46.2 h | increase in LNG exposure ([3]; women on ritonavir vs control): approximately 30%
